Source: US20250084056A1, “SUBSTITUTED OXOISOINDOLINYL PIPERIDINE-2,6-DIONE COMPOUNDS” (BRISTOL-MYERS SQUIBB COMPANY, priority 2023, published 2025)

Key:
Assay type in all cases: cell-based
Phospho-Rb (Ser807/811) = experiment: Phospho-Retinoblastoma (pRB) Cellular Assay; conditions: Homo sapiens, OVCAR-3, NIH OVCAR3 cells, 24 hours; for IC50: concentration giving 50% response; for Emax: maximum response, reference compound at 10 μM = 100%, read-out: pRB Ymax
In short: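 OVCAR3 cells seeded overnight, then dosed with serial dilutions for 24 h at 37° C. Lysed with kit mix plus phosphatase inhibitor, ≥4 h at room temperature, read on EnVision; 100% response set by reference compound at 10 μM, giving IC50 and Ymax.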

GSPT1 = GSPT1 (Homo sapiens, UniProt P15170+Q96SW2); experiment: GSPT1 Cellular Degradation Assay (DF15-GSPT1-ePL); design: expressed in transfected cells; conditions: DF15-GSPT1-ePL cells, 20 hours
In short: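 Human DF15 cells co-expressing a GSPT1–ePL fusion were treated with compound in RPMI 1640/10% FBS for 20 h at 37 °C. GSPT1 level was read by enzyme-fragment-complementation luminescence after 60 min with detection reagent. The reference degrader at […] defined 75% response; DC50 and Dmax were reported.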

Cyclin E1 = Cyclin E1 (Homo sapiens, UniProt P24864+Q96SW2); experiment: Cyclin E1 Cellular Degradation Assay (MSD); design: endogenous in cells; host or cells: OVCAR3; conditions: for DC50 / Dmax: Cyclin E1 cellular degradation; for Dmax: maximum degradation; for Ratio of GSPT1 DC50/Cyclin E1 DC50: selectivity for degradation of Cyclin E1 over GSPT1
In short: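 OVCAR3 cells treated with compound for 24 h at 37 °C, lysed, and cyclin E1 measured by MSD sandwich immunoassay (rabbit capture, mouse detection anti-CCNE1). Reference degrader at […] defined 110% response; DC50 and Dmax derived from response.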

Cyclin E1, sequence (P24864 whole entry): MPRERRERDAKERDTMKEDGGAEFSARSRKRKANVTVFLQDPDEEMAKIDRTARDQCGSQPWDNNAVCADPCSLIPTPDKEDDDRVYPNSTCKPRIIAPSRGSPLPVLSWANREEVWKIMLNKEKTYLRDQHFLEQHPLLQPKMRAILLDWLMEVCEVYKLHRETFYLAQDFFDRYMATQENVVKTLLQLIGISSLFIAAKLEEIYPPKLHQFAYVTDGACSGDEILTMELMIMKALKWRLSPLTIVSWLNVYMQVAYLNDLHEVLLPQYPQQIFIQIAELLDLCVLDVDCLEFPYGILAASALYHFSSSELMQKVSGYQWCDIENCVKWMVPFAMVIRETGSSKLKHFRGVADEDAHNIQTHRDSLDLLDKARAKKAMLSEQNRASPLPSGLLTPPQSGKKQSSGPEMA
Cyclin E1, sequence (Q96SW2 whole entry): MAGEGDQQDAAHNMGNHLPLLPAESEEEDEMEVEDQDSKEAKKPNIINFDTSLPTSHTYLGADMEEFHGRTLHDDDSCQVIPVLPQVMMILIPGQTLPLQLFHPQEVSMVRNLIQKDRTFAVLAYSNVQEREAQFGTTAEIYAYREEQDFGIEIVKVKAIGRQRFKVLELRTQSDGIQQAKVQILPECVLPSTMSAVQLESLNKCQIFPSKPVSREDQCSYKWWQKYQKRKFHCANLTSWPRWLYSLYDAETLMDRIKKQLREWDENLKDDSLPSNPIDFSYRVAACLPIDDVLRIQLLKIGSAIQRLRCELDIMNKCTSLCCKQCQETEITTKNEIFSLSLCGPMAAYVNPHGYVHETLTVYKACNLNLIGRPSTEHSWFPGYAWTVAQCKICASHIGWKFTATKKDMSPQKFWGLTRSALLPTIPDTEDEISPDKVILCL
Cyclin E1, sequence (Q16531 whole entry partner): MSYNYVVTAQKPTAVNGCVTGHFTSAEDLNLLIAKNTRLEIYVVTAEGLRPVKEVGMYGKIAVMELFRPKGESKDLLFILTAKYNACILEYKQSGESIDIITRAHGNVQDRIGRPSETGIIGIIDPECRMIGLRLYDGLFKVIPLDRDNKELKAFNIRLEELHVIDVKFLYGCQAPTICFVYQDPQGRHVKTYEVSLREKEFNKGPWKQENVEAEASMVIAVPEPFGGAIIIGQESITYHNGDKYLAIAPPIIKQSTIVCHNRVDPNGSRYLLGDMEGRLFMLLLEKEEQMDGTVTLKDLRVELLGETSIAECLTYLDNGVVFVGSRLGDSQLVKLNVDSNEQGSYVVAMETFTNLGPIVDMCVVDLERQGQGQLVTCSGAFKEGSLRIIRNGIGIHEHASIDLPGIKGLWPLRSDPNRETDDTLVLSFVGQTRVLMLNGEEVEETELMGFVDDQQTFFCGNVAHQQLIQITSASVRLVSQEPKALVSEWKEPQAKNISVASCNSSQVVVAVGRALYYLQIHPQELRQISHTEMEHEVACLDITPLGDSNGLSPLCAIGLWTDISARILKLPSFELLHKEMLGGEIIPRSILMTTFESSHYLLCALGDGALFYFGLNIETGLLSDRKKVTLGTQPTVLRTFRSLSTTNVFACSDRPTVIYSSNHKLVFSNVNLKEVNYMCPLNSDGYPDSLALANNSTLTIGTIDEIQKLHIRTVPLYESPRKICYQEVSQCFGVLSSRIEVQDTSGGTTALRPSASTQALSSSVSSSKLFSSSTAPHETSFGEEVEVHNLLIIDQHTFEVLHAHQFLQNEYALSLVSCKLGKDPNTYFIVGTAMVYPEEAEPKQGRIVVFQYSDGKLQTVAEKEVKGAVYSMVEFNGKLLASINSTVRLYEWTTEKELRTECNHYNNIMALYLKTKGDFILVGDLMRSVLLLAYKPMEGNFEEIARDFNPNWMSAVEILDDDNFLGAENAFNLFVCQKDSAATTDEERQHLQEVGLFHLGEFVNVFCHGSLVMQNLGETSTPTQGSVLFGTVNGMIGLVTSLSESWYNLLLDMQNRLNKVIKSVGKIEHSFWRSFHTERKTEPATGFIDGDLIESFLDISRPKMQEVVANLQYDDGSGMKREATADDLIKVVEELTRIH
GSPT1, sequence (P15170 whole entry, the tested form may be a part): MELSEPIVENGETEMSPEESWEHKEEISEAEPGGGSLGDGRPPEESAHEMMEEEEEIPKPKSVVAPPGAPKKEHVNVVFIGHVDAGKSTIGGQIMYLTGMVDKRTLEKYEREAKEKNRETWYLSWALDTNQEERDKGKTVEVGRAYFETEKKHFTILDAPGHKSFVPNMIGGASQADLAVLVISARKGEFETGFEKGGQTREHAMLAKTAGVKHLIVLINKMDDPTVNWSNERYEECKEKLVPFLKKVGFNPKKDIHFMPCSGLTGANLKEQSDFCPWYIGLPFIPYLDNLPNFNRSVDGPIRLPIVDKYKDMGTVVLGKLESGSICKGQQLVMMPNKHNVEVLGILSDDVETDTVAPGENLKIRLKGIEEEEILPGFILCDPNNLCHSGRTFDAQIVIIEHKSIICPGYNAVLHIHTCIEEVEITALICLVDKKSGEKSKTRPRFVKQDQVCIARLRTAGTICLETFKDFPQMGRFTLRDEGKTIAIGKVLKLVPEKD
GSPT1, sequence (Q96SW2 whole entry, the tested form may be a part): as the sequence (Q96SW2 whole entry) above
GSPT1, sequence (Q16531 whole entry partner, the tested form may be a part): as the sequence (Q16531 whole entry partner) above

Structure (SMILES)	IC50 (Phospho-Rb (Ser807/811)) [nM]	DC50 (GSPT1) [nM]	Dmax (GSPT1) [%]	DC50 (Cyclin E1) [nM]	Dmax (Cyclin E1) [%]	Ratio of GSPT1 DC50/Cyclin E1 DC50 (Cyclin E1)	Emax (Phospho-Rb (Ser807/811)) [%]
COc1c(COC(=O)Nc2ccc(Nc3cccc(F)c3)cc2)ccc2c1C(=O)N(C1CCC(=O)NC1=O)C2 (centres unmarked) [Example 9, [2-(2,6-dioxopiperidin-3-yl)-4-methoxy-3-oxo-2,3-dihydro-1H-isoindol-5-yl]methyl N-{4-[(3-fluorophenyl)amino]phenyl}carbamate]	3010	> 14000	38	648	86	>22	85
COc1c(COC(=O)Nc2ccc(Oc3ccc(F)cc3C)cc2F)ccc2c1C(=O)N(C1CCC(=O)NC1=O)C2 (centres unmarked) [Example 95, [2-(2,6-dioxopiperidin-3-yl)-4-methoxy-3-oxo-2,3-dihydro-1H-isoindol-5-yl]methyl N-[2-fluoro-4-(4-fluoro-2-methylphenoxy)phenyl]carbamate]	63	> 14000	36	274	110	>51	125
COc1cc(F)c(F)cc1Oc1ccc(NC(=O)OCc2ccc3c(c2OC)C(=O)N(C2CCC(=O)NC2=O)C3)c(C)c1 (centres unmarked) [Example 33, [2-(2,6-dioxopiperidin-3-yl)-4-methoxy-3-oxo-2,3-dihydro-1H-isoindol-5-yl]methyl N-[4-(4,5-difluoro-2-methoxyphenoxy)-2-methylphenyl]carbamate]	809	> 14000	8	1630	85	>9	87
COc1cc(Oc2ccccc2)ccc1NC(=O)OCc1ccc2c(c1OC)C(=O)N(C1CCC(=O)NC1=O)C2 (centres unmarked) [Example 93, [2-(2,6-dioxopiperidin-3-yl)-4-methoxy-3-oxo-2,3-dihydro-1H-isoindol-5-yl]methyl N-(2-methoxy-4-phenoxyphenyl)carbamate]	159	> 14000	5	338	103	>41	111
COc1c(COC(=O)Nc2ccc(Oc3ccc(F)c(Cl)c3)cc2)ccc2c1C(=O)N(C1CCC(=O)NC1=O)C2 (centres unmarked) [Example 14, [2-(2,6-dioxopiperidin-3-yl)-4-methoxy-3-oxo-2,3-dihydro-1H-isoindol-5-yl]methyl N-[4-(3-chloro-4-fluorophenoxy)phenyl]carbamate]	363	> 14000	43	59	108	>239	96
COc1cc(Oc2cccc(F)c2)ccc1NC(=O)OCc1ccc2c(c1OC)C(=O)N(C1CCC(=O)NC1=O)C2 (centres unmarked) [Example 48, [2-(2,6-dioxopiperidin-3-yl)-4-methoxy-3-oxo-2,3-dihydro-1H-isoindol-5-yl]methyl N-[4-(3-fluorophenoxy)-2-methoxyphenyl]carbamate]	69	> 14000	46	139	111	>101	108

Second part, led by results:

IC50 (Phospho-Rb (Ser807/811)) [nM]	DC50 (GSPT1) [nM]	Dmax (GSPT1) [%]	DC50 (Cyclin E1) [nM]	Dmax (Cyclin E1) [%]	Ratio of GSPT1 DC50/Cyclin E1 DC50 (Cyclin E1)	Structure (SMILES)	Emax (Phospho-Rb (Ser807/811)) [%]
33	> 14000	50	52	107	>268	COc1c(COC(=O)Nc2ccc(Oc3ccc(F)cc3Cl)cc2F)ccc2c1C(=O)N(C1CCC(=O)NC1=O)C2 (centres unmarked) [Example 105, [2-(2,6-dioxopiperidin-3-yl)-4-methoxy-3-oxo-2,3-dihydro-1H-isoindol-5-yl]methyl N-[4-(2-chloro-4-fluorophenoxy)-2-fluorophenyl]carbamate]	120
31	> 14000	10	71	108	>196	O=C1CCC(N2Cc3ccc(COC(=O)Nc4ccc(Oc5ccc(F)c(F)c5)cc4)c(OC4CCCC4)c3C2=O)C(=O)N1 (centres unmarked) [Example 151, [4-(cyclopentyloxy)-2-(2,6-dioxopiperidin-3-yl)-3-oxo-2,3-dihydro-1H-isoindol-5-yl]methyl N-[4-(3,4-difluorophenoxy)phenyl]carbamate]	113
54	> 14000	10	116	107	>120	CC(C)Oc1c(COC(=O)Nc2ccc(Oc3ccc(F)c(F)c3)cc2F)ccc2c1C(=O)N(C1CCC(=O)NC1=O)C2 (centres unmarked) [Example 119, [2-(2,6-dioxopiperidin-3-yl)-3-oxo-4-(propan-2-yloxy)-2,3-dihydro-1H-isoindol-5-yl]methyl N-[4-(3,4-difluorophenoxy)-2-fluorophenyl]carbamate]	111
92	> 14000	28	97	109	>144	COc1c(COC(=O)Nc2ccc(Oc3ccc(F)c(Cl)c3)cc2F)ccc2c1C(=O)N(C1CCC(=O)NC1=O)C2 (centres unmarked) [Example 98, [2-(2,6-dioxopiperidin-3-yl)-4-methoxy-3-oxo-2,3-dihydro-1H-isoindol-5-yl]methyl N-[4-(3-chloro-4-fluorophenoxy)-2-fluorophenyl]carbamate]	106
72	> 14000	20	173	106	>81	COc1c(COC(=O)Nc2ccc(Oc3cccc(F)c3F)cc2)ccc2c1C(=O)N(C1CCC(=O)NC1=O)C2 (centres unmarked) [Example 110, [2-(2,6-dioxopiperidin-3-yl)-4-methoxy-3-oxo-2,3-dihydro-1H-isoindol-5-yl]methyl N-[4-(2,3-difluorophenoxy)phenyl]carbamate]	99
61	> 14000	18	72	108	>194	COc1c(COC(=O)Nc2ccc(Oc3ccccc3C)cc2)ccc2c1C(=O)N(C1CCC(=O)NC1=O)C2 (centres unmarked) [Example 101, [2-(2,6-dioxopiperidin-3-yl)-4-methoxy-3-oxo-2,3-dihydro-1H-isoindol-5-yl]methyl N-[4-(2-methylphenoxy)phenyl]carbamate]	111
100	> 14000	27	129	106	>109	COc1c(COC(=O)Nc2ccc(Oc3ccc(F)c(C)c3)cc2)ccc2c1C(=O)N(C1CCC(=O)NC1=O)C2 (centres unmarked) [Example 96, [2-(2,6-dioxopiperidin-3-yl)-4-methoxy-3-oxo-2,3-dihydro-1H-isoindol-5-yl]methyl N-[4-(4-fluoro-3-methylphenoxy)phenyl]carbamate]	117
225	> 14000	26	147	100	>95	O=C1CCC(N2Cc3ccc(COC(=O)Nc4ccc(Oc5ccc(F)c(F)c5)cc4F)c(O[C@@H]4CCOC4)c3C2=O)C(=O)N1 (stereo partly drawn) [Example 154, [2-(2,6-dioxopiperidin-3-yl)-3-oxo-4-[(3R)-oxolan-3-yloxy]-2,3-dihydro-1H-isoindol-5-yl]methyl N-[4-(3,4-difluorophenoxy)-2-fluorophenyl]carbamate]	123
